Measured values from the supplement of paper PMC13380429.

Assays:
Details in all cases: 72 h
Caco-2 [1] = test: cell viability relative to DMSO; higher = less toxic
Calu-3 [2] = test: as above
HepG2 [3] = test: as above
U2OS [4] = test: as above
Vero E6 [5] = test: as above
Caco-2 [6] = test: relative viability EC50 (midpoint between 100% and the lowest measured viability); higher = less toxic
Calu-3 [7] = test: as above
HepG2 [8] = test: as above
U2OS [9] = test: as above
Vero E6 [10] = test: as above
Caco-2 [11] = test: drug sensitivity score (DSS) for viability; higher = more toxic; extreme values may be limits of the assay
Calu-3 [12] = test: as above
HepG2 [13] = test: as above
U2OS [14] = test: as above
Vero E6 [15] = test: as above

For O=C1C(CC[S+]([O-])c2ccccc2)C(=O)N(c2ccccc2)N1c1ccccc1 (stereo not given) [sulfinpyrazone], which cell viability (Caco-2 [1]; 1 nM) is on record?
Its cell viability is 102%.

What about the cell viability (Caco-2 [1]; 10 nM) of the same molecule?
Its cell viability is 103%.

And the cell viability (Caco-2 [1]; 100 nM)?
The cell viability was 98.5%.

And the cell viability (Caco-2 [1]; 1000 nM)?
The cell viability was 99.8%.

What about the cell viability (Caco-2 [1]; 10000 nM) of the same molecule?
Its cell viability is 90.5%.

What about the cell viability (Calu-3 [2]; 1 nM) of the same molecule?
Its cell viability is 93.2%.

And the cell viability (Calu-3 [2]; 10 nM)?
The cell viability was 98%.

And the cell viability (Calu-3 [2]; 100 nM)?
Its cell viability is 98.9%.

What about the cell viability (Calu-3 [2]; 1000 nM) of the same molecule?
Its cell viability is 94%.

What about the cell viability (Calu-3 [2]; 10000 nM) of the same molecule?
Its cell viability is 105%.

And the cell viability (HepG2 [3]; 1 nM)?
The cell viability was 109%.

And the cell viability (HepG2 [3]; 10 nM)?
Its cell viability is 115%.

What about the cell viability (HepG2 [3]; 100 nM) of the same molecule?
The cell viability was 110%.

What about the cell viability (HepG2 [3]; 1000 nM) of the same molecule?
The cell viability was 97.7%.

And the cell viability (HepG2 [3]; 10000 nM)?
Its cell viability is 110%.

What about the cell viability (U2OS [4]; 1 nM) of the same molecule?
The cell viability was 97.5%.

And the cell viability (U2OS [4]; 10 nM)?
The cell viability was 102%.

What about the cell viability (U2OS [4]; 100 nM) of the same molecule?
The cell viability was 104%.

What about the cell viability (U2OS [4]; 1000 nM) of the same molecule?
Its cell viability is 102%.

What about the cell viability (U2OS [4]; 10000 nM) of the same molecule?
Its cell viability is 102%.

What about the cell viability (Vero E6 [5]; 1 nM) of the same molecule?
Its cell viability is 106%.

What about the cell viability (Vero E6 [5]; 10 nM) of the same molecule?
Its cell viability is 103%.

And the cell viability (Vero E6 [5]; 100 nM)?
Its cell viability is 100%.

And the cell viability (Vero E6 [5]; 1000 nM)?
Its cell viability is 97.1%.

And the cell viability (Vero E6 [5]; 10000 nM)?
The cell viability was 103%.

What about the “relative viability EC50” value (Caco-2 [6]) of the same molecule?
Its value is greater than 10 µM.

What about the “relative viability EC50” value (Calu-3 [7]) of the same molecule?
The value was greater than 10 µM.

And the “relative viability EC50” value (HepG2 [8])?
Its value is greater than 10 µM.

What about the “relative viability EC50” value (U2OS [9]) of the same molecule?
Its value is greater than 10 µM.

What about the “relative viability EC50” value (Vero E6 [10]) of the same molecule?
The value was greater than 10 µM.

And the drug sensitivity score (Caco-2 [11])?
Its drug sensitivity score is 0.

What about the drug sensitivity score (Calu-3 [12]) of the same molecule?
Its drug sensitivity score is 0.

What about the drug sensitivity score (HepG2 [13]) of the same molecule?
The drug sensitivity score was 0.

What about the drug sensitivity score (U2OS [14]) of the same molecule?
The drug sensitivity score was 0.

And the drug sensitivity score (Vero E6 [15])?
The drug sensitivity score was 0.

With FC(F)(F)c1ccc(CNc2ccc(Cc3c[nH]c4ncccc34)cn2)cc1 [PLX647] as the molecule, how does the cell viability (Caco-2 [1]; 1 nM) read?
Its cell viability is 96%.

What about the cell viability (Caco-2 [1]; 10 nM) of the same molecule?
The cell viability was 102%.

What about the cell viability (Caco-2 [1]; 100 nM) of the same molecule?
Its cell viability is 94.7%.

And the cell viability (Caco-2 [1]; 1000 nM)?
Its cell viability is 94.2%.

What about the cell viability (Caco-2 [1]; 10000 nM) of the same molecule?
Its cell viability is 91.3%.

What about the cell viability (Calu-3 [2]; 1 nM) of the same molecule?
Its cell viability is 102%.

And the cell viability (Calu-3 [2]; 10 nM)?
The cell viability was 96.4%.

And the cell viability (Calu-3 [2]; 100 nM)?
Its cell viability is 105%.

What about the cell viability (Calu-3 [2]; 1000 nM) of the same molecule?
The cell viability was 93.9%.

And the cell viability (Calu-3 [2]; 10000 nM)?
The cell viability was 94.7%.

What about the cell viability (HepG2 [3]; 1 nM) of the same molecule?
The cell viability was 100%.

What about the cell viability (HepG2 [3]; 10 nM) of the same molecule?
Its cell viability is 97.6%.

What about the cell viability (HepG2 [3]; 100 nM) of the same molecule?
The cell viability was 97.4%.

And the cell viability (HepG2 [3]; 1000 nM)?
Its cell viability is 101%.

What about the cell viability (HepG2 [3]; 10000 nM) of the same molecule?
The cell viability was 86.9%.

What about the cell viability (U2OS [4]; 1 nM) of the same molecule?
Its cell viability is 104%.

And the cell viability (U2OS [4]; 10 nM)?
The cell viability was 97.6%.

What about the cell viability (U2OS [4]; 100 nM) of the same molecule?
The cell viability was 101%.

And the cell viability (U2OS [4]; 1000 nM)?
Its cell viability is 97.7%.

And the cell viability (U2OS [4]; 10000 nM)?
Its cell viability is 96.4%.

And the cell viability (Vero E6 [5]; 1 nM)?
The cell viability was 95.7%.

What about the cell viability (Vero E6 [5]; 10 nM) of the same molecule?
Its cell viability is 98.8%.

And the cell viability (Vero E6 [5]; 100 nM)?
The cell viability was 96.7%.

What about the cell viability (Vero E6 [5]; 1000 nM) of the same molecule?
The cell viability was 98.5%.

And the cell viability (Vero E6 [5]; 10000 nM)?
The cell viability was 96.8%.

And the “relative viability EC50” value (Caco-2 [6])?
Its value is greater than 10 µM.

What about the “relative viability EC50” value (Calu-3 [7]) of the same molecule?
The value was greater than 10 µM.

And the “relative viability EC50” value (HepG2 [8])?
The value was greater than 10 µM.

And the “relative viability EC50” value (U2OS [9])?
The value was greater than 10 µM.

And the “relative viability EC50” value (Vero E6 [10])?
The value was greater than 10 µM.

What about the drug sensitivity score (Caco-2 [11]) of the same molecule?
Its drug sensitivity score is 0.

And the drug sensitivity score (Calu-3 [12])?
The drug sensitivity score was 0.

And the drug sensitivity score (HepG2 [13])?
Its drug sensitivity score is 0.1.

And the drug sensitivity score (U2OS [14])?
Its drug sensitivity score is 0.

What about the drug sensitivity score (Vero E6 [15]) of the same molecule?
Its drug sensitivity score is 0.

With COc1cc(Br)c(S(=O)(=O)Nc2ccc(Cl)c(O[C@@H]3CCN(C)C3)c2)cc1OC as the molecule, how does the cell viability (Caco-2 [1]; 1 nM) read?
Its cell viability is 104%.

And the cell viability (Caco-2 [1]; 10 nM)?
Its cell viability is 93.7%.

What about the cell viability (Caco-2 [1]; 100 nM) of the same molecule?
Its cell viability is 99.7%.

What about the cell viability (Caco-2 [1]; 1000 nM) of the same molecule?
The cell viability was 94.9%.

And the cell viability (Caco-2 [1]; 10000 nM)?
The cell viability was 90%.

What about the cell viability (Calu-3 [2]; 1 nM) of the same molecule?
The cell viability was 80.8%.

What about the cell viability (Calu-3 [2]; 10 nM) of the same molecule?
The cell viability was 99.2%.

And the cell viability (Calu-3 [2]; 100 nM)?
The cell viability was 90.3%.

And the cell viability (Calu-3 [2]; 1000 nM)?
The cell viability was 94.3%.

And the cell viability (Calu-3 [2]; 10000 nM)?
Its cell viability is 85%.

And the cell viability (HepG2 [3]; 1 nM)?
The cell viability was 97.6%.

What about the cell viability (HepG2 [3]; 10 nM) of the same molecule?
The cell viability was 98.3%.

And the cell viability (HepG2 [3]; 100 nM)?
Its cell viability is 106%.

What about the cell viability (HepG2 [3]; 1000 nM) of the same molecule?
Its cell viability is 91.8%.

What about the cell viability (HepG2 [3]; 10000 nM) of the same molecule?
The cell viability was 36.3%.

What about the cell viability (U2OS [4]; 1 nM) of the same molecule?
The cell viability was 95.2%.

What about the cell viability (U2OS [4]; 10 nM) of the same molecule?
Its cell viability is 97.4%.

And the cell viability (U2OS [4]; 100 nM)?
The cell viability was 88.5%.

And the cell viability (U2OS [4]; 1000 nM)?
Its cell viability is 97.7%.

And the cell viability (U2OS [4]; 10000 nM)?
Its cell viability is 95%.

And the cell viability (Vero E6 [5]; 1 nM)?
The cell viability was 101%.

And the cell viability (Vero E6 [5]; 10 nM)?
Its cell viability is 93.6%.

And the cell viability (Vero E6 [5]; 100 nM)?
Its cell viability is 96.1%.

What about the cell viability (Vero E6 [5]; 1000 nM) of the same molecule?
Its cell viability is 97.8%.

What about the cell viability (Vero E6 [5]; 10000 nM) of the same molecule?
The cell viability was 108%.

And the “relative viability EC50” value (Caco-2 [6])?
Its value is greater than 10 µM.

What about the “relative viability EC50” value (Calu-3 [7]) of the same molecule?
The value was greater than 10 µM.

And the “relative viability EC50” value (HepG2 [8])?
The value was 2.13 µM.

What about the “relative viability EC50” value (U2OS [9]) of the same molecule?
The value was greater than 10 µM.

And the “relative viability EC50” value (Vero E6 [10])?
The value was greater than 10 µM.

What about the drug sensitivity score (Caco-2 [11]) of the same molecule?
Its drug sensitivity score is 0.

What about the drug sensitivity score (Calu-3 [12]) of the same molecule?
The drug sensitivity score was 0.

And the drug sensitivity score (HepG2 [13])?
Its drug sensitivity score is 4.9.

What about the drug sensitivity score (U2OS [14]) of the same molecule?
Its drug sensitivity score is 0.

What about the drug sensitivity score (Vero E6 [15]) of the same molecule?
Its drug sensitivity score is 0.
